The source of these data is publication PMC12114598, “Repositioning FDA-Approved Sulfonamide-Based Drugs as Potential Carbonic Anhydrase Inhibitors in Trypanosoma cruzi: Virtual Screening and In Vitro Studies” (Pharmaceuticals, 2025).

SMILES strings stand for the structures.

The subject of one data set is T. cruzi epimastigotes. Further details: method as in PMID 32560043. The conditions noted are these: in vitro epimastigote model; cited from earlier work.
Data set [1] deals with T. cruzi blood trypomastigotes, A1 strain. As to the kind of experiment: Trypanocidal activity, blood trypomastigotes ex vivo, A1 strain. In kind it is cell-based. Particulars: Trypanosoma cruzi; 24 h at 4 °C; ± SD; read-out: Trypomastigote (Ex Vivo) A1 IC50. The protocol: (§1) Ex vivo evaluation of the trypanocidal activity of the tested compounds was conducted according to previously established protocols. Blood was collected via intracardiac puncture from mice infected with T. cruzi NINOA and A1 strains and diluted in phosphate-buffered saline (PBS, pH 7.2) to achieve a final concentration of 2 × 10^6 blood trypomastigotes/mL. […] The plates were incubated at 4 °C for 24 h. […] Following incubation, live parasites were quantified using a Neubauer chamber, and the half-maximal inhibitory concentration (IC50) was determined by probit analysis. All assays were performed in three independent experiments, each conducted in triplicate.

A further data set has as its target T1, hCA I (Homo sapiens, UniProt P00915).
T1 construct: made in house
As to the kind of experiment: CO2 hydrase stopped-flow assay, hCA I. Type of data set: biochemical. Particulars: mean of three assays, errors ±5–10%. The protocol:
(§2) An Applied Photophysics stopped-flow instrument was used for assaying the CA-catalysed CO2 hydration activity. […] The uncatalyzed rates were determined in the same manner and subtracted from the total observed rates. Stock solutions of inhibitor (0.1 mM) were prepared in distilled/deionized water, and dilutions up to 0.01 nM were performed thereafter with the assay buffer. Inhibitor and enzyme solutions were preincubated together for 15 min at room temperature before assaying to allow for the formation of the E–I complex. The inhibition constants were obtained by nonlinear least-squares methods using PRISM 3 and the Cheng–Prusoff equation and represent the mean from at least three different determinations. […] All hCA isoforms were recombinant ones obtained in-house, as reported earlier.

The subject of data set [2] is T. cruzi amastigotes, NINOA strain. Nature of the data set: Amastigote assay, NINOA strain. Type of data set: cell-based. The conditions noted are these: Trypanosoma cruzi; in J774.2 macrophages, 48 h, MTT; ± SD; read-out: Amastigote (Ex Vivo) NINOA IC50. The protocol:
(§3) Amastigote susceptibility to reference drugs was evaluated in vitro. […] The lysis solution was then replaced with Schneider’s medium followed by incubation at 28 °C for another 4 to 5 days to allow the transformation of viable amastigotes and their subsequent proliferation. Then, MTT colorimetric assays were performed. Finally, the half maximal inhibitory concentration (IC50) was determined by probit analysis. All studies were approved by the Institutional Committee for Handling and Animal Care of the Facultad de Ciencias Quimicas de la Universidad Autonoma “Benito Juarez” de Oaxaca (Register FCQ-CIP-0209243, Approved 23 September 2024) and were carried out according to Mexican guidance (NOM-062-ZOO-1999).

Data set [3] concerns T. cruzi amastigotes, A1 strain. As to the kind of experiment: Amastigote assay, A1 strain. The conditions noted are these: Trypanosoma cruzi; in J774.2 macrophages, 48 h, MTT; ± SD; read-out: Amastigote (Ex Vivo) A1 IC50. In kind it is cell-based. Here is the method: as §3
In a further data set the target is α-TcCA (Trypanosoma cruzi, UniProt Q4CVY4). Nature of the data set: CO2 hydrase stopped-flow assay, α-TcCA.
Another data set in a line: in vitro. The conditions noted are these: mouse. In kind it is cell-based. Here is the method:
Cytotoxicity assays were performed using the methodology proposed by Domínguez-Diaz et al. on a mouse macrophage cell line (J774.2). Cells were cultured in LIT medium supplemented with 10% SFB, penicillin (100 U μg/mL), and streptomycin (100 U μg/mL) at 37 °C in a 5% CO2 atmosphere. The culture medium was replaced at 2–3 day intervals. To evaluate the cytotoxicity of the compounds, 50,000 cells/well were plated in a 96-well plate and allowed to adhere for 24 h at 37 °C. Subsequently, the compounds were added at concentrations of 0.8 to 100 μg/mL to obtain a final volume of 200 μL and incubated for […] with 5% CO2. DMSO 0.1% (maximum concentration used) was included as a negative control and the control drugs as positive ones. The metabolic activity of the cell was determined following the MTT method, the % cell viability was calculated, and the median lethal concentration (LC50) was determined by Probit analysis. Analyses were performed in triplicate, and the Selectivity Index (SI) for the three parasitic stages in the NINOA and A1 strains (CC50/IC50) was calculated.

The test system of data set [4] is T. cruzi epimastigotes, NINOA strain. Nature of the data set: Trypanocidal activity, epimastigotes in vitro, NINOA strain. In kind it is cell-based. Particulars: Trypanosoma cruzi; 48 h, resazurin; ± SD; read-out: Epimastigote (In Vitro) NINOA IC50. An excerpt:
(§4) The selected drugs were purchased from Sigma-Aldrich without further purification. For the in vitro evaluation, the methodology proposed by Domínguez-Diaz et al. 2021 [53] against epimastigotes of T. cruzi strains NINOA (MHOM/MX/1994/NINOA) and A1 for the evaluation of candidate compounds was used. Both strains were maintained in liver-infusion tryptose (LIT) medium supplemented with 10% fetal bovine serum (FBS) and 0.1% penicillin–streptomycin. These strains were maintained by transferring 1 × 10^6 parasites/mL to fresh medium once a week. […] All compounds were initially prepared at a concentration of 10 mg/mL using dimethyl sulfoxide (DMSO) as a diluent. Serial dilutions were then performed with LIT medium until concentrations of 100 to 0.46 μg/mL of each compound were obtained. Amounts of 1 × 10^6 T. cruzi epimastigotes were grown in each well and incubated for 48 h at 28 °C in a final volume of 200 μL. DMSO was included as a negative control, and reference drugs as positive controls. At the end of the incubation period, 20 μL of resazurin solution (2.5 mM) was added to each well and incubated for 3 h. All assays were performed in triplicate, and the IC50 value was determined by probit analysis.
(The colour change of resazurin is a common sign of viable cells or microbes.)

Data set [5] has as its system T. cruzi blood trypomastigotes, NINOA strain. As to the kind of experiment: Trypanocidal activity, blood trypomastigotes ex vivo, NINOA strain. In kind it is cell-based. Particulars: Trypanosoma cruzi; 24 h at 4 °C; ± SD; read-out: Trypomastigote (Ex Vivo) NINOA IC50. The protocol: as §1
Data set [6] concerns T. cruzi epimastigotes, A1 strain. As to the kind of experiment: Trypanocidal activity, epimastigotes in vitro, A1 strain. In kind it is cell-based. Particulars: Trypanosoma cruzi; 48 h, resazurin; ± SD; read-out: Epimastigote (In Vitro) A1 IC50.
Source text: as §4

The target of a further data set is T2, hCA II (Homo sapiens, UniProt P00918).
T2 construct: made in house
Nature of the data set: CO2 hydrase stopped-flow assay, hCA II. In kind it is biochemical. Particulars: mean of three assays, errors ±5–10%. Here is the method: as §2

T1 sequence (P00915 whole entry): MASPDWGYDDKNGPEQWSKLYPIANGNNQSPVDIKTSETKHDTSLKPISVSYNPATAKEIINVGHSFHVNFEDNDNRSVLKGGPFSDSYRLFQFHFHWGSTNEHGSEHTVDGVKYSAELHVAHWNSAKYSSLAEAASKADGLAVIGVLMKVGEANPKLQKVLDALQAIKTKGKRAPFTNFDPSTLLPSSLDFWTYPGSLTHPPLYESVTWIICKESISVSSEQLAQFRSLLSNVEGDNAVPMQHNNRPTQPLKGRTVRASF
Sequence of α-TcCA (Q4CVY4 entry or part of it): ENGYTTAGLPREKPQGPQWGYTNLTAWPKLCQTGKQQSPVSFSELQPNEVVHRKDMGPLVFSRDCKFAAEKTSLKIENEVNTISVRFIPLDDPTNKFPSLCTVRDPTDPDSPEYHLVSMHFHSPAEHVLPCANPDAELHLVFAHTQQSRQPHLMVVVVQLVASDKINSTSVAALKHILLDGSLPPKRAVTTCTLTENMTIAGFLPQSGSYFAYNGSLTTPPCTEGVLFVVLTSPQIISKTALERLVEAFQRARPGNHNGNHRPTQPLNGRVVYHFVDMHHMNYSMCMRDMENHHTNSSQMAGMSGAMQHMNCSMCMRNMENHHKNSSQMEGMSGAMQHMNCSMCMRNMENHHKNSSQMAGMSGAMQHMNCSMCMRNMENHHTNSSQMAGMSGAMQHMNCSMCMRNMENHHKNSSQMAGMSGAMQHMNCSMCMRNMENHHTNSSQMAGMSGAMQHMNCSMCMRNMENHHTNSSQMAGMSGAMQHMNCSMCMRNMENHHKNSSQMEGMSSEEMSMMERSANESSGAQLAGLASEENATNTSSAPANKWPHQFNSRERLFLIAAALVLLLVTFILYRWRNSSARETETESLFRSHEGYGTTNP
Protocol for α-TcCA: An Applied Photophysics stopped-flow instrument was used for assaying the CA-catalysed CO2 hydration activity [31]. […] The uncatalyzed rates were determined in the same manner and subtracted from the total observed rates. Stock solutions of inhibitor (0.1 mM) were prepared in distilled/deionized water, and dilutions up to 0.01 nM were performed thereafter with the assay buffer. Inhibitor and enzyme solutions were preincubated together for 15 min at room temperature before assaying to allow for the formation of the E–I complex. The inhibition constants were obtained by nonlinear least-squares methods using PRISM 3 and the Cheng–Prusoff equation and represent the mean from at least three different determinations.

By IC50 is commonly meant the concentration at which inhibition is half-maximal. Consider `Cc1cnc(C(=O)NCCc2ccc(S(=O)(=O)NC(=O)NC3CCCCC3)cc2)cn1` [glipizide], for which the IC50 in the data set with T. cruzi epimastigotes was 13.4 ± 6 µM.

A word on the Ki: it is a measure of affinity in units of concentration, obtained from inhibition or displacement. Higher therefore signals weaker binding. Usually CC50 stands for the concentration at which the toxic effect on the cells reaches its halfway point. Low values mean greater toxicity to the cells, high ones lower toxicity to the cells. With `Cc1ccc(S(=O)(=O)NC(=O)NN2CC3CCCC3C2)cc1` (stereo not shown) [Glic, gliclazide], the IC50 in [1] is above 200 µM; in data set [2], above 200 µM; in [3] it was 12.3 ± 0.01 µM; in data set [4] it was above 200 µM; in data set [5] it was 89.4 ± 0.1 µM; in data set [6], 10.7 ± 1.5 µM. Besides, the Ki at hCA I and on α-TcCA was above 100 µM each time. In “in vitro”, the CC50 at 48 h was above 200 µM.

Consider `CCCCNC(=O)NS(=O)(=O)c1ccc(C)cc1` [Tol, tolbutamide], for which the 50% inhibitory concentration (IC50) in data set [1] was 97.7 ± 0.1 µM; in [2], 148.7 ± 0.01 µM; in data set [3], 44.5 ± 0.01 µM; in data set [4] it was 8.5 ± 1.4 µM; in [5], 9.8 ± 0.1 µM; in [6], above 200 µM. The Ki at hCA I, on α-TcCA and at hCA II was above 100 µM in each case. In addition, on α-TcCA (mean of three assays, errors ±5–10%), the “KI TcCA” value is “did not exhibit inhibitory activity”. The CC50 at 48 h in “in vitro” was above 200 µM.

For `CC(=O)c1ccc(S(=O)(=O)NC(=O)NC2CCCCC2)cc1` [Ace, acetohexamide], the IC50 is above 200 µM in [1]; 46 ± 0.6 µM in data set [2]; above 200 µM in data set [3]; 6.5 ± 2.1 µM in data set [4]; 46.5 ± 0.1 µM in [5]; 52.9 ± 2.7 µM in [6]. Besides, the Ki on hCA I worked out at 17.3 µM; on α-TcCA, 5.6 µM; at hCA II it was 2.9 µM. In “in vitro”, the CC50 at 48 h was above 200 µM.

For `O=C(Cn1ccnc1[N+](=O)[O-])NCc1ccccc1` [Bzn, Benznidazole], the IC50 was determined as 145.3 ± 0.2 µM in data set [1], 30.3 ± 0.03 µM in data set [4], 167.1 ± 0.03 µM in [5] and 19.3 ± 0.08 µM in [6].

In the data set “in vitro”, `CC(=O)Nc1nnc(S(N)(=O)=O)s1` [Aaz, acetazolamide] returned a CC50 at 48 h of 12.6 ± 4.7 µM.

`CCC1=C(C)CN(C(=O)NCCc2ccc(S(=O)(=O)NC(=O)N[C@H]3CC[C@H](C)CC3)cc2)C1=O` [Glim, glimepiride]: the IC50 is above 200 µM in [1]; above 200 µM in data set [2]; 50.26 ± 0.01 µM in [3]; 70.2 ± 3.2 µM in data set [4]; above 200 µM in data set [5]; 37.6 ± 1.5 µM in data set [6]. Moreover, the Ki was above 100 µM on hCA I, 35.7 µM at α-TcCA and 19.9 µM at hCA II. Moreover, the midpoint of cytotoxicity in the data set “in vitro”, the CC50 at 48 h, lay at 14.2 ± 2.3 µM.

For the compound `CC1CS(=O)(=O)CCN1/N=C/c1ccc([N+](=O)[O-])o1` (stereo not shown) [Nfx, Nifurtimox], the IC50 in data set [1] is 118.2 ± 0.02 µM; in data set [2], 70.5 ± 0.6 µM; in data set [3], 54.8 ± 0.01 µM; in [4], 7.1 ± 0.1 µM; in data set [5], 156 ± 0.1 µM; in [6] it was 39.1 ± 0.07 µM.
